Measured values taken from publication PMC11732987, “Enantioselective OTUD7B fragment discovery through chemoproteomics screening and high-throughput optimisation” (Communications Chemistry, 2025).

Assays:
[1] = target: T1, OTUD7B (Homo sapiens, UniProt Q6GQQ9); assay: Ub-Rho110Gly DUB activity assay; also intact protein LC-MS kinetics (kinact/KI […] ^-1 s^-1), SiteID LC-MS/MS, lysate ABPP (TE50 […]); assay type: biochemical; parameters: OTU domain; OTUD7B aa129-438 (intact protein LC-MS), aa129–538 (SiteID)
T1 sequence (Q6GQQ9 129-438): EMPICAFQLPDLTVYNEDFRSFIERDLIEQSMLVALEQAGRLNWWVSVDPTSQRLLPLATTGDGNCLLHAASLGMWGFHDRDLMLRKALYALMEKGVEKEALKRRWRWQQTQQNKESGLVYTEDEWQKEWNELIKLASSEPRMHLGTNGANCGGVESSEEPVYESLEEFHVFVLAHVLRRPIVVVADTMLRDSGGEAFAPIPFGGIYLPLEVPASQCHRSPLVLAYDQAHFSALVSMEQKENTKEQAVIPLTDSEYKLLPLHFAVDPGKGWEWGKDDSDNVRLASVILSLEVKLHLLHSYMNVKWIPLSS

[2] = target: T1, OTUD7B; assay: Ub-Rho110Gly DUB activity assay; also intact protein LC-MS kinetics (kinact/KI […] ^-1 s^-1), lysate ABPP (TE50 […]); assay type: biochemical; parameters: OTUD7B aa129-438 (intact protein LC-MS)

SMILES	IC50 [1] [µM]	IC50 [2] [µM]
O=C(CCl)N[C@H]1CCCc2ccccc21 [compound 29]	3.5	–
O=C(CCl)N[C@@H]1CCCc2ccccc21 [compound 30]	–	58.3
